US20210147498A1, “USE OF GRAM-NEGATIVE LYSIN-ANTIMICROBIAL PEPTIDE (AMP) POLYPEPTIDE CONSTRUCTS IN PULMONARY SURFACTANT AND BIOFILMS” (priority 2018, published 2021)
Where two headings read alike, the source gives them in different places.

Test system: carbapenem-resistant P. aeruginosa strains
Experiment: microbe, parasite or virus in culture
Type: cell-based, Pseudomonas aeruginosa
Details: for MIC: Pseudomonas aeruginosa; for MIC Combination / MIC Alone: vs. WC-452
Procedure: Such resensitization may be determined by combining the present lysins or lysin-AMP polypeptide constructs with an antibiotic in a checkerboard assay as described herein. Antibiotic-resistant bacteria, such as carbapenem-resistant P. aeruginosa, are added to the lysin or lysin-AMP polypeptide construct combination. […] See Clinical and Laboratory Standards Institute (CLSI), CLSI. […] M100 Performance Standards for Antimicrobial Susceptibility Testing; 29th Edition. Clinical and Laboratory Standards Institute, Wayne, Pa., which is herein incorporated by reference in its entirety.
Up to seven carbapenem-resistant isolates were assessed. […] See Clinical and Laboratory Standards Institute (CLSI), CLSI. […] M100 Performance Standards for Antimicrobial Susceptibility Testing; 29th Edition. Clinical and Laboratory Standards Institute, Wayne, Pa.

**Q.** With `C[C@@H](O)[C@H]1C(=O)N2C(C(=O)O)=C(SCCN=CN)C[C@H]12` [Imipenem, imipenem] as the molecule, how does the MIC (GN121, read-out: MIC (μg/mL) Alone, isolate PA20, checkerboard Imipenem + GN121) read?
**A.** 16 µg/mL

**Q.** What about the MIC (GN121, read-out: MIC (μg/mL) Alone, isolate PA21, checkerboard Imipenem + GN121) of the same molecule?
**A.** 32 µg/mL

**Q.** What about the MIC (GN121, read-out: MIC (μg/mL) Alone, isolate PA23, checkerboard Imipenem + GN121) of the same molecule?
**A.** 16 µg/mL

**Q.** And the MIC (GN123, read-out: MIC (μg/mL) Alone, isolate PA19, checkerboard IMIPENEM + GN123)?
**A.** 32 µg/mL

**Q.** And the MIC (GN123, read-out: MIC (μg/mL) Alone, isolate PA20, checkerboard IMIPENEM + GN123)?
**A.** 16 µg/mL

**Q.** And the MIC (GN123, read-out: MIC (μg/mL) Alone, isolate PA21, checkerboard IMIPENEM + GN123)?
**A.** 32 µg/mL

**Q.** What about the MIC (GN123, read-out: MIC (μg/mL) Alone, isolate PA22, checkerboard IMIPENEM + GN123) of the same molecule?
**A.** 16 µg/mL

**Q.** And the MIC (GN123, read-out: MIC (μg/mL) Alone, isolate PA23, checkerboard IMIPENEM + GN123)?
**A.** 8 µg/mL

**Q.** And the MIC (GN123, read-out: MIC (μg/mL) Alone, isolate PA24, checkerboard IMIPENEM + GN123)?
**A.** 32 µg/mL

**Q.** What about the MIC (GN123, read-out: MIC (μg/mL) Alone, isolate WC-452, checkerboard IMIPENEM + GN123) of the same molecule?
**A.** 16 µg/mL

**Q.** And the “susceptibility category of the isolate, carbapenem Alone” value (isolate PA19)?
**A.** (R) ((R) = resistant)

**Q.** And the “MIC (μg/mL) Combination” value (isolate PA19, IMIPENEM combined with GN123)?
**A.** 0.5 µg/mL

**Q.** What about the “MIC (μg/mL) Combination” value (isolate PA19, Imipenem combined with GN121) of the same molecule?
**A.** 1 µg/mL

**Q.** What about the “susceptibility category of the isolate, carbapenem in Combination” value (“susceptibility category … in Combination” below) (isolate PA19, combined with GN121) of the same molecule?
**A.** (S) ((S) = sensitive)

**Q.** And the “susceptibility category … in Combination” value (isolate PA19, combined with GN123)?
**A.** (S) ((S) = sensitive)

**Q.** And the “susceptibility category of the isolate, carbapenem Alone” value (isolate PA20)?
**A.** (R) ((R) = resistant)

**Q.** What about the “MIC (μg/mL) Combination” value (isolate PA20, IMIPENEM combined with GN123) of the same molecule?
**A.** 1 µg/mL

**Q.** And the “MIC (μg/mL) Combination” value (isolate PA20, Imipenem combined with GN121)?
**A.** 0.5 µg/mL

**Q.** And the “susceptibility category … in Combination” value (isolate PA20, combined with GN121)?
**A.** (S) ((S) = sensitive)

**Q.** What about the “susceptibility category … in Combination” value (isolate PA20, combined with GN123) of the same molecule?
**A.** (S) ((S) = sensitive)

**Q.** And the “susceptibility category of the isolate, carbapenem Alone” value (isolate PA21)?
**A.** (R) ((R) = resistant)

**Q.** What about the “MIC (μg/mL) Combination” value (isolate PA21, IMIPENEM combined with GN123) of the same molecule?
**A.** 0.5 µg/mL

**Q.** What about the “MIC (μg/mL) Combination” value (isolate PA21, Imipenem combined with GN121) of the same molecule?
**A.** 1 µg/mL

**Q.** What about the “susceptibility category … in Combination” value (isolate PA21, combined with GN121) of the same molecule?
**A.** (S) ((S) = sensitive)

**Q.** What about the “susceptibility category … in Combination” value (isolate PA21, combined with GN123) of the same molecule?
**A.** (S) ((S) = sensitive)

**Q.** And the “susceptibility category of the isolate, carbapenem Alone” value (isolate PA22)?
**A.** (R) ((R) = resistant)

**Q.** What about the “MIC (μg/mL) Combination” value (isolate PA22, IMIPENEM combined with GN123) of the same molecule?
**A.** 2 µg/mL

**Q.** What about the “MIC (μg/mL) Combination” value (isolate PA22, Imipenem combined with GN121) of the same molecule?
**A.** 2 µg/mL

**Q.** What about the “susceptibility category … in Combination” value (isolate PA22, combined with GN121) of the same molecule?
**A.** (S) ((S) = sensitive)

**Q.** What about the “susceptibility category … in Combination” value (isolate PA22, combined with GN123) of the same molecule?
**A.** (S) ((S) = sensitive)

**Q.** What about the “susceptibility category of the isolate, carbapenem Alone” value (isolate PA23) of the same molecule?
**A.** (R) ((R) = resistant)

**Q.** And the “MIC (μg/mL) Combination” value (isolate PA23, IMIPENEM combined with GN123)?
**A.** 0.25 µg/mL

**Q.** What about the “MIC (μg/mL) Combination” value (isolate PA23, Imipenem combined with GN121) of the same molecule?
**A.** 0.125 µg/mL

**Q.** And the “susceptibility category … in Combination” value (isolate PA23, combined with GN121)?
**A.** (S) ((S) = sensitive)

**Q.** What about the “susceptibility category … in Combination” value (isolate PA23, combined with GN123) of the same molecule?
**A.** (S) ((S) = sensitive)

**Q.** What about the “susceptibility category of the isolate, carbapenem Alone” value (isolate PA24) of the same molecule?
**A.** (R) ((R) = resistant)

**Q.** What about the “MIC (μg/mL) Combination” value (isolate PA24, IMIPENEM combined with GN123) of the same molecule?
**A.** 2 µg/mL

**Q.** And the “MIC (μg/mL) Combination” value (isolate PA24, Imipenem combined with GN121)?
**A.** 1 µg/mL

**Q.** What about the “susceptibility category … in Combination” value (isolate PA24, combined with GN121) of the same molecule?
**A.** (S) ((S) = sensitive)

**Q.** And the “susceptibility category … in Combination” value (isolate PA24, combined with GN123)?
**A.** (S) ((S) = sensitive)

**Q.** What about the “susceptibility category of the isolate, carbapenem Alone” value (isolate WC-452) of the same molecule?
**A.** (R) ((R) = resistant)

**Q.** And the “MIC (μg/mL) Combination” value (isolate WC-452, IMIPENEM combined with GN123)?
**A.** 1 µg/mL

**Q.** And the “susceptibility category … in Combination” value (isolate WC-452, combined with GN123)?
**A.** (S) ((S) = sensitive)

**Q.** What about the “susceptibility category … in Combination” value (isolate WC-452, combined with GN351) of the same molecule?
**A.** (S) ((S) = sensitive)

**Q.** And the “susceptibility category … in Combination” value (isolate WC-452, combined with GN370)?
**A.** (S) ((S) = sensitive)

**Q.** What about the “susceptibility category … in Combination” value (isolate WC-452, combined with GN428) of the same molecule?
**A.** (S) ((S) = sensitive)

**Q.** What about the MIC Combination (IPM combined with GN351) of the same molecule?
**A.** 0.5 µg/mL

**Q.** What about the MIC Combination (IPM combined with GN370) of the same molecule?
**A.** 0.5 µg/mL

**Q.** And the MIC Combination (IPM combined with GN428)?
**A.** 1 µg/mL

**Q.** And the MIC Alone (checkerboard IPM + GN351)?
**A.** 16 µg/mL

**Q.** And the MIC Alone (checkerboard IPM + GN370)?
**A.** 16 µg/mL

**Q.** What about the MIC Alone (checkerboard IPM + GN428) of the same molecule?
**A.** 16 µg/mL
